Legend:
[1] = test system: unfractionated heparin anticoagulation; experiment: DAP reversal of unfractionated heparin anticoagulation in vivo, aPTT; parameters: species or system rat
Source text: (§1) The activated partial thromboplastin time (aPTT) assay is an assay that measures how long it takes for the blood to clot. Blood samples are collected for direct measurement or in tubes with oxalate and citrate to arrest coagulation by calcium until the assay can be performed. In the assay, a phospholipid, an activator (silica, celite, kaolin, ellagic acid, etc.), and calcium are mixed into the plasma to induce coagulation. The assay measures the time until a thrombus (clot) forms.
A male albino rat, weighing 515 g, was administered 10 mg/kg of unfractionated heparin (5 mg UFH) by subcutaneous injection.
200 mg/kg of DAP (100 mg DAP) was administered as two intravenous bolus injections after UFH administration. Subsequently, the rat was administered a dose of 400 mg/kg of DAP (200 mg of DAP). aPTT was measured throughout the course of the entire treatment.

[2] = target: human ERG (Homo sapiens, UniProt Q12809); experiment: Human ERG binding; conditions: data not shown
[3] = test system: rivaroxaban (XARELTO®) anticoagulation; experiment: DAP reversal of rivaroxaban (XARELTO®) anticoagulation in vivo, aPTT; parameters: species or system rat; conditions: rats, 5 mg/kg rivaroxaban oral, 5 mg/kg (2 mg) DAP i.v.
Protocol: as §1
5 mg/kg rivaroxaban (XARELTO®) was orally administered to rats. After four hours, 5 mg/kg of DAP (2 mg DAP) was administered intravenously. aPTT were measured at zero, 15, 30, 45, 60 and 240 minutes, prior to administration of DAP. aPTT was again measured at about 5, 10, 25, 35, 45, 60, 120, and 240 minutes after DAP administration.

[4] = Water solubility of DAP; type: physicochemical
Protocol: In one embodiment, wherein the pharmaceutical composition comprises the DAP compound of formula V (or its stereoisomer of formula VII) and the composition is adapted for parenteral administration in an injection, the compound is dissolved in water with appropriate tonicity and molality modifiers (such as phosphate buffered saline). DAP is water-soluble at greater than 100 mg/ml. In the one embodiment, DAP is adapted as a sterile solution for IV administration. In one aspect, the molality of the pharmaceutical composition in which DAP is adapted for IV administration is adjusted to 290 mOsm/L with sodium chloride, and the pH is adjusted to 7.4 with sodium hydroxide. Preferably the pharmaceutical composition is administered as an intravenous bolus by slow push.

[5] = test system: apixaban anticoagulation; experiment: DAP reversal of apixaban in human plasma ex vivo, Biophen anti-Factor Xa chromogenic assay; type: biochemical
Protocol: The anti-factor Xa assay directly measures anti-factor Xa activity. The methodology behind an anti-factor Xa assay is that patient plasma is added to a known amount of excess factor Xa and excess antithrombin. If a factor Xa inhibitor is present in the patient plasma, it will reduce the enzymatic activity of factor Xa. The amount of residual factor Xa is inversely proportional to the amount of anti-Xa agent in the plasma. The amount of residual factor Xa is detected by adding a chromogenic substrate that mimics the natural substrate of factor Xa, making residual factor Xa cleave it, releasing a colored compound that can be detected by a spectrophotometer. […] Results are given in anticoagulant concentration in units/mL of antifactor Xa, such that high values indicate high levels of anticoagulation and low values indicate low levels of anticoagulation.
218 μg/L or 459 μg/L of rivaroxaban was added to human plasma, with or without 1,250 μg/L or 6,250 μg/L of DAP, respectively. […] DAP effect on anticoagulation was measured by 510 k cleared Biophen anti-Factor Xa chromogenic assay. Rivaroxaban concentrations were determined by comparison with plasma calibration standards, while apixaban concentrations were inferred from stock solution dilutions as calibration standards are not yet available.

[6] = DLS association of DAP with fondaparinux; type: binding
Protocol: Rivaroxaban (XARELTO®) alone, DAP alone, and DAP:rivaroxaban combinations at mass ratios of 1:1 and 10:1 were added into an aqueous solution and analyzed by dynamic light scattering (DLS) to assess association of the DAP and rivaroxaban. A similar experiment was conducted on apixaban (ELIQUIS®) alone, DAP alone, and DAP:apixaban combinations at mass ratios of 1:1, 10:1 and 100:1. Fondaparinux (ARIXTRA®) alone, DAP alone, and fondaparinux:DAP combinations at mass ratios of 1:1, 10:1 and 100:1 were similarly tested. LMWH (bemiparin; HIBOR®), alone, DAP alone, and LMWH:DAP combinations at mass ratios of 1:1, 10:1, and 100:1 were also tested. The concentration of LMWH tested was 0.1 mg/ml. Therefore, at 1:1, 0.1 mg/ml DAP was tested, at 10:1, 1 mg/ml was tested, and at 100:1, 10 mg/ml DAP was tested.

human ERG, sequence (Q12809 whole entry): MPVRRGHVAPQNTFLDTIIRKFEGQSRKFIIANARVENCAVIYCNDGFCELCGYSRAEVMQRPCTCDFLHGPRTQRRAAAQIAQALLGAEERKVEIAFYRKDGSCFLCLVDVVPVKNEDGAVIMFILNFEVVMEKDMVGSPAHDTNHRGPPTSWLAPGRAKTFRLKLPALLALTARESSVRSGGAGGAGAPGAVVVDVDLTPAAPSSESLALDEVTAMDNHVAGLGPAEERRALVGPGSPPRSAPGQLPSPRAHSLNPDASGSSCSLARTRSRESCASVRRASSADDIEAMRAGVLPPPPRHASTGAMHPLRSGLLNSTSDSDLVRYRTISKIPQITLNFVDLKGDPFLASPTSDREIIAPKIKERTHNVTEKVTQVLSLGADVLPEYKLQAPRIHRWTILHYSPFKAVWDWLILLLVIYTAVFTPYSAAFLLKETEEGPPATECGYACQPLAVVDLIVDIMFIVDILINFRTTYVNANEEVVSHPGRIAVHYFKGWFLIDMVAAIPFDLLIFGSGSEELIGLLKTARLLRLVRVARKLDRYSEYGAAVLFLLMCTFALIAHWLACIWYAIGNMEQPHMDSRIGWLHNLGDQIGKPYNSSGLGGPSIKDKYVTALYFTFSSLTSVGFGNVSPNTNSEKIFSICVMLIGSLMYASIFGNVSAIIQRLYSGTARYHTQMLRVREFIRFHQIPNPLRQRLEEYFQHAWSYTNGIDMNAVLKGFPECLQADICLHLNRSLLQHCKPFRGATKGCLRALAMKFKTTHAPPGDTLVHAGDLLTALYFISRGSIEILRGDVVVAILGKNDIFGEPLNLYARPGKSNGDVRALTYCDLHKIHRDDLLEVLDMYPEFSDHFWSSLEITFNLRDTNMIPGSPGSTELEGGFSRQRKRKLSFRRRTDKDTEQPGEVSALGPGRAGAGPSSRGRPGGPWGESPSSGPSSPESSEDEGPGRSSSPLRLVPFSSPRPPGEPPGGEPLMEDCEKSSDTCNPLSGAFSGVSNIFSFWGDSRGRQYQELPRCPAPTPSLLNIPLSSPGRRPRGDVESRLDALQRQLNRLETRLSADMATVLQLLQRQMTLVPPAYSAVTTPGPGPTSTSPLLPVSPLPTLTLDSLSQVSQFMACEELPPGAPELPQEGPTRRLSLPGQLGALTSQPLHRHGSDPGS

human ERG binding [2]: no human ERG binding | solubility [4]: > 100 mg/mL | binding by DLS [6]: directly bound
Structure (SMILES): N=C(N)NCCC[C@H](N)C(=O)NCCCN1CCN(CCCNC(=O)[C@@H](N)CCCNC(=N)N)CC1 (stereo in doubt) [DAP, 2-Amino-5-guanidino-pentanoic acid (3-{4-[3-(2-amino-5-guanidino-pentanoylamino)-propyl]-piperazin-1-yl}-propyl)-amide]
aPTT after DAP ([1]; 200 mg DAP i.v., 10 minutes): 33 s | aPTT after DAP ([1]; first 100 mg DAP i.v., 20 minutes): 48 s | reversal of unfractionated heparin in vivo ([1]; rat, in vivo): reversed | aPTT after DAP ([1]; second 100 mg DAP i.v., 15 minutes): 47 s | aPTT risen after first DAP dose ([1]; within 1 hour after first 100 mg DAP): 120 s | aPTT risen after second DAP dose ([1]; within 1 hour after second 100 mg DAP): 96 s | reversal of oral rivaroxaban anticoagulation in vivo [3]: effectively reversed | effective anticoagulant concentration after DAP ([5]; 156 μg/L apixaban with 1,156 μg/L DAP, 313 μg/L apixaban with 3,125 μg/L DAP): below the minimum effective concentration | dose dependence of apixaban reversal ([5]; human blood ex vivo): dose-dependent reversal

Reference: patent publication US9877961B2, “Anticoagulant reversal agents” (PEROSPHERE INC., priority 2011, dated 2018)
